For seven compounds, inhibition results are on record in ChEMBL document CHEMBL4138276, “Hamigerans R and S: Nitrogenous Diterpenoids from the New Zealand Marine Sponge Hamigera tarangaensis” (J Nat Prod, 2018).

The assay has as its system HL-60. As to the kind of experiment: Cytotoxicity against human HL60 cells assessed as inhibition of cell proliferation at <10 uM after 48 hrs by MTT assay. The format is functional, cell-based. (Tetrazolium assays rely on reduction of a dye to a coloured formazan, in cell work by metabolically active cells.)

Molecules are shown by their SMILES. Calls of active or inactive are those of the source. No cut-off for these calls is given here.

Regarding `COC(=O)[C@]1(O)C(=O)c2c(O)c(Br)c(C)c(Br)c2[C@H]2[C@@H](C(C)C)CC[C@]21C`, the inhibition result was “inactive”. Next, `COC(=O)c1c([C@H]2[C@@H](C(C)C)CC[C@@]2(C)CC(=O)O)cc(C)c(Br)c1O`: “inactive”; `Cc1cc2c3c(c1Br)O[C@]14N[C@]3(Oc3c(Br)c(C)cc(c31)[C@H]1[C@@H](C(C)C)CC[C@@]1(C)CC4=O)C(=O)C[C@]1(C)CC[C@H](C(C)C)[C@H]21`: “inactive”. As for `Cc1cc(O)c2c(c1)[C@H]1[C@@H](C(C)C)CC[C@@]1(C)C(=O)C2=O`, the entry is “inactive”; as for `Cc1cc(O)c2c(c1)[C@H]1[C@@H](C(C)C)CC[C@@]1(C)[C@@H](O)[C@H](O)C2=O`, “inactive”; as for `Cc1cc([C@H]2[C@@H](C(C)C)CC[C@@]2(C)CC(=O)O)c(C#N)c(O)c1Br`, “inactive”. As for `COC(=O)[C@@]1(O)C(=O)[C@]2(C)CC[C@H](C(C)C)[C@@H]2c2cc(C)cc(O)c21`, the entry is “inactive”.
